Laboratory results published in US20230204594A1, “SYSTEMS AND METHODS FOR REAL-TIME CELLULAR DRUG-TARGET ENGAGEMENT” (NERD BIO LLC, priority 2021, published 2023).
Read-outs that look alike come from different tables or passages of the source.

How the values were obtained:
[1] = target: T1, BCL6 Micro-tagged protein (BCL6-S-tag fusion protein) (Homo sapiens, UniProt P41182); test: Small molecule target engagement screening on lysates, micro-tagged BCL6 heated at Tmin; format: binding
T1 construct: expressed in transfected cells; host or cells: HEK293, lysate (1% Triton X-100 in TBS)
Protocol: HEK293 cells were transfected using Lipofectamine 2000 according to manufacturer protocol. Two days after transfection, media was removed and cells lifted by pipetting up and down using 1×TBS. Cells were centrifuged at 400 g for 4 min. The TBS wash was removed and the cells lysed with either 1% Triton X 100 in TBS for MTH1 and BCL6, or 0.5% DDM in TBS for EGFR expressing cells. Cells were lysed at 4° C. on a rotator for 1 hour and cell debris removed by gentle centrifugation for 1 minute at 6000 rpm. Lysates were transferred to a new tube and aliquots that were not used immediately in the assay were frozen at −80° C. for future use.
Small molecule compounds were dissolved in DMSO at 10 mM and serial dilutions in DMSO at 100× concentration were prepared from this stock. Lysates from cells expressing the micro-tagged (S-peptide tagged) protein were diluted with cold 1×TBS at 1/10 and 39.6 ul aliquoted to a PCR plate; […]. The heated sample (30 ul) was added and fluorescence detected using a microplate reader. The plate was read in kinetic mode (excitation=485 nm, emission=520 nm) with the PolarStar Omega 96-well plate reader.
For analysis, the RAW fluorescence signal or fluorescence change per minute was plotted with inhibitor dose on a Semi-Log scale using GraphPad Prism. Nonlinear regression analysis was used for curve fitting to identify EC50 of target engagement or apparent KD.
After 4 minutes incubation the fluorescence detected could be plotted with dose of inhibitor tested on a semi-log scale. Using nonlinear regression analysis and fitting a Sigmoidal dose-response curve (with variable slope) using GraphPad Prism identified an EC50 of Target Engagement. […] The peak fluorescence signal identified the dose of inhibitor that saturates the micro-tag protein target. At concentrations of the inhibitor above this saturating dose there was rapid cleavage of the FRET-labeled substrate resulting in loss of fluorescence signal over time (Relative Light Unit per minute (RLU/min)) and lower fluorescence detected. At concentrations below this saturating dose the micro-tag construct was denatured in the heat challenge and there was less micro-tag available for enzyme complementation resulting in lower fluorescence signal (FIG. 36A). […].

BCL6 = BCL6 (Homo sapiens, UniProt P41182); settings: known value, read-out: in vitro IC50, cited from earlier work

binding to the BCL6 micro-tag target ([1]; HEK293 lysates, heated at Tmin, 4 minutes incubation, FIG. 38B) | SMILES | EC50 ([1]; HEK293 lysates, heated at Tmin, fluorescence after 4 minutes incubation, FIG. 38A, read-out: EC50 of target engagement) [nM] | Kd ([1]; Saturation Binding Equation (One-site total), after 15 minutes, FIG. 39C, read-out: Apparent Equilibrium Dissociation Constant (apparent KD)) [nM] | EC50 ([1]; after 15 minutes, FIG. 39B, read-out: EC50 of target engagement after removal of data points beyond the target saturation dose) [nM] | IC50 (BCL6; well-characterized inhibitor) [nM] | IC50 (BCL6; inactive structural analog) [nM]
 | CNC(=O)COc1cc2cc(Nc3nc(N4CCC(C(=O)N(C)C)CC4)ncc3Cl)cc(OC)c2n(C)c1=O [BI-3812] | 0.63 | 1.6 | 0.9 | ~3 | 
did not bind the target | C[C@@H]1C[C@H](C)CN(c2ncc(Cl)c(Nc3ccc4c(c3)cc(OC(C)(C)C(=O)O)c(=O)n4C)n2)C1 [BI-5273] |  |  |  |  | ~10000
